Measurements from patent US7687624B2, “Process for the production of N-arylmorpholinones” (Merck Patent GmbH, priority 2003, dated 2010).

conditions: pKa value of the amine; cited from earlier work

SMILES | pKa
Nc1ccccc1[N+](=O)[O-] [2-Nitroaniline] | −0.23
Nc1cccc([N+](=O)[O-])c1 [3-Nitroaniline] | 2.5
N#Cc1ccc(N)cc1 [4-Cyanoaniline] | 1.7
COC(=O)c1ccc(N)cc1 [Methyl 4-aminobenzoate] | 1.5
Nc1ccc(C(=O)c2ccccc2)cc1 [4-Aminobenzophenone] | 2.2
Cc1cc([N+](=O)[O-])ccc1N [2-Methyl-4-nitroaniline] | 1.04
COc1ccc(N)cc1 [4-Methoxyaniline] | 5.4
NCc1ccccc1 [Benzylamine] | 9.5

conditions: not given

SMILES | melting point
O=C1COCCN1c1ccc([N+](=O)[O-])cc1 [Example 1, 4-(4-Nitrophenyl)-3-oxomorpholine] | 150 to 152 °C
